Measured values reported in PubChem BioAssay (NCI).
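Grown in 96-well plates, cells were treated for 48 hours with each compound at five concentrations. Insufficient inhibition: endpoint recorded as highest concentration tested. GI50 marks 50% less growth. At the TGI there is no net growth.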

Assays:
Test in all cases: inhibition of tumour cell growth, NCI panel, 48 h
CAKI-1 renal = system: CAKI-1 renal
HL-60(TB) leukemia = system: HL-60(TB) leukemia
HCT-116 colon = system: HCT-116 colon
K-562 leukemia = system: K-562 leukemia
NCI-H23 lung = system: NCI-H23 lung
UACC-62 melanoma = system: UACC-62 melanoma
LOX IMVI melanoma = system: LOX IMVI melanoma
OVCAR-4 ovarian = system: OVCAR-4 ovarian
A549 NSCLC = system: A549 NSCLC
MCF7 breast = system: MCF7 breast
DU-145 prostate = system: DU-145 prostate
MDA-MB-435 = system: MDA-MB-435
CCRF-CEM leukemia = system: CCRF-CEM leukemia
MALME-3M melanoma = system: MALME-3M melanoma
SK-MEL-2 melanoma = system: SK-MEL-2 melanoma
SK-OV-3 ovarian = system: SK-OV-3 ovarian
HOP-92 NSCLC = system: HOP-92 NSCLC
HOP-62 NSCLC = system: HOP-62 NSCLC
SN12C renal = system: SN12C renal
SW-620 colon = system: SW-620 colon
MDA-MB-231 breast = system: MDA-MB-231 breast
RPMI-8226 leukemia = system: RPMI-8226 leukemia
NCI-H522 lung = system: NCI-H522 lung
RXF 393 renal = system: RXF 393 renal
786-0 renal = system: 786-0 renal
SR leukemia = system: SR leukemia
HS 578T breast = system: HS 578T breast
HCC-2998 colon = system: HCC-2998 colon
UACC-257 melanoma = system: UACC-257 melanoma
OVCAR-8 ovarian = system: OVCAR-8 ovarian

Molecule N#Cc1c(NC(=O)c2ccc(C(F)(F)F)c(Cl)c2)sc2c1CCC(=O)C2 has a TGI (CAKI-1 renal) of 2120 nM, a GI50 (HL-60(TB) leukemia) of 1160 nM and a TGI (HL-60(TB) leukemia) of 5390 nM. The GI50 (HCT-116 colon) was 371 nM, the TGI (HCT-116 colon) was 1430 nM and the GI50 (K-562 leukemia) was 336 nM. It also gave a TGI (K-562 leukemia) of 5220 nM, a GI50 (NCI-H23 lung) of 1030 nM and a TGI (NCI-H23 lung) of 3010 nM. For the same molecule, the GI50 (UACC-62 melanoma) was 1230 nM, the TGI (UACC-62 melanoma) was 2660 nM and the GI50 (LOX IMVI melanoma) was 561 nM. The TGI (LOX IMVI melanoma) was 2040 nM, the GI50 (OVCAR-4 ovarian) was 1320 nM and the TGI (OVCAR-4 ovarian) was 2860 nM. The GI50 (A549 NSCLC) was 2440 nM, the TGI (A549 NSCLC) was 7660 nM and the GI50 (MCF7 breast) was 1470 nM. The TGI (MCF7 breast) was 7500 nM, the GI50 (DU-145 prostate) was 3930 nM and the TGI (DU-145 prostate) was 18300 nM. It also gave a GI50 (MDA-MB-435) of 1600 nM, a TGI (MDA-MB-435) of 3080 nM and a GI50 (CCRF-CEM leukemia) of 334 nM. The TGI (CCRF-CEM leukemia) was 3530 nM, the GI50 (MALME-3M melanoma) was 1260 nM and the TGI (MALME-3M melanoma) was 3150 nM. It also gave a GI50 (SK-MEL-2 melanoma) of 1940 nM, a TGI (SK-MEL-2 melanoma) of 4380 nM and a GI50 (SK-OV-3 ovarian) of 2120 nM. It also gave a TGI (SK-OV-3 ovarian) of 5920 nM, a GI50 (HOP-92 NSCLC) of 1190 nM and a TGI (HOP-92 NSCLC) of 3240 nM. The GI50 (HOP-62 NSCLC) was 2160 nM, the TGI (HOP-62 NSCLC) was 6050 nM and the GI50 (SN12C renal) was 923 nM. The TGI (SN12C renal) was 2740 nM, the GI50 (SW-620 colon) was 400 nM and the TGI (SW-620 colon) was 1790 nM. It also gave a GI50 (MDA-MB-231 breast) of 1460 nM, a TGI (MDA-MB-231 breast) of 3000 nM and a GI50 (RPMI-8226 leukemia) of 214 nM. The TGI (RPMI-8226 leukemia) was 736 nM, the GI50 (NCI-H522 lung) was 346 nM and the TGI (NCI-H522 lung) was 1350 nM. It also gave a GI50 (RXF 393 renal) of 618 nM, a TGI (RXF 393 renal) of 1950 nM and a GI50 (786-0 renal) of 1850 nM. For the same molecule, the TGI (786-0 renal) was 5530 nM, the GI50 (SR leukemia) was 399 nM and the TGI (SR leukemia) was 10300 nM. The GI50 (HS 578T breast) was 891 nM, the TGI (HS 578T breast) was 3490 nM and the GI50 (HCC-2998 colon) was 1670 nM. The TGI (HCC-2998 colon) was 3350 nM, the GI50 (UACC-257 melanoma) was 1700 nM and the TGI (UACC-257 melanoma) was 4350 nM. It also gave a GI50 (OVCAR-8 ovarian) of 1380 nM and a TGI (OVCAR-8 ovarian) of 3480 nM.
